pEC50, pIC50: −log10 of the molar value. Like-named read-outs stand apart in the source and are kept apart here.
How the values were obtained:
MDA-MB-231 cells = test: Adriamycin sensitivity of MDA-MB-231 cells; assay type: cell-based, human; conditions: MDA-MB-231 parental line
Experimental: The cells are allowed to attach to the plate overnight and then the media is replaced with media containing an different concentrations of ADR (0 nM, 10 nM, 20 nM, 50 nM, 100 nM, 400 nM, 500 nM, 1 μM, 5 μM, and 10 μM) and the cells are then incubated at 37° C. for 4 days. […] The colonies are the counted and the results expressed as the level of ADR resistance in nM (e.g., ≦400 nM), or EC50, in which 50% of the cells were still alive.

HeLa cells = test: cells; assay type: cell-based; conditions: Homo sapiens, HeLa, read-out: IC50 Results (MTT)
Experimental: III. MTT Cytotoxicity Assays. 24 hours post-transfection, siRNA transfected cells were seeded into 96-well plates at 3×10^3 cells/well. The cells were incubated for 16-24 hours. A range of concentrations of the indicated cytotoxic drugs was added and incubation was continued for an additional 48 hours. 20 μL of MTT (10 mg/mL) was added to each well and the plates were further incubated at 37° C. for 4 hours. The dye was solubilized with DMSO and absorbance measured at 570 nm using a multiwell plate reader (WALLAC). The results were expressed as the average of duplicate wells using the plate reader's Prism software (GraphPad).
Using the MTT cytotoxicity assay (as described in Example 3), the IC50 (i.e., the concentration at which 50% of the cells are still viable) of HeLa cells transfected with p16 siRNA for various chemotherapeutic agents was next assessed.

MCF7 cells = test: Adriamycin sensitivity of MCF7 cells; conditions: for pEC50: Homo sapiens
p16^INK4a protein = test: p16 induction after short-term adriamycin exposure (modified SITp16), MCF7 cells; assay type: cell-based, human; conditions: 50 nM adriamycin, 36 hour treatment (FIG. 9)
Experimental: Finally, in a modification of the SITp16, an experiment was performed to determine if p16 expression was induced following a short-term exposure of adriamycin-sensitive cells to adriamycin. For these studies, MCF7 cells were treated 3 days with the EC50 amount of adriamycin (i.e., the effective concentration median or middle of a dose response curve -for MCF7 cells and adriamycin, this is 40 nM. (Note that EC50 is the effective concentration median or middle of a dose response curve, while IC50=inhibitory concentrations by 50%. Total cell lysates (i.e., extracts) were then prepared from these adriamycin-treated cells (called MCF7 EC50 Doxo), as well as from an equal number of MCF7 cells (drug sensitive), MCF7/AR (adriamycin-resistant cells), and OVCAR3 cells (an ovarian cancer cell line from a patient who was treated with adriamycin). The lysates were resolved by SDS-PAGE, transferred to a nitrocellulose membrane, and probed with p16^INK4a specific monoclonal antibody (α-p16^INK4a (Ab-4, Neomarkers clone 16P04, JC2 commercially available from Lab Vision, Freemont, Calif.).
Studies were next performed to determine if a short duration of exposure to adriamycin would cause upregulation of p16 expression in MCF7 cells. […]

SMILES: COc1cccc2c1C(=O)c1c(O)c3c(c(O)c1C2=O)C[C@@](O)(C(=O)CO)C[C@@H]3O[C@H]1C[C@H](N)[C@H](O)[C@H](C)O1 [Doxorubicin, doxorubicin]
- ADR concentration to which cell line is sensitive (MDA-MB-231 cells): approximately 200 nM
- pIC50 (HeLa cells; HeLa cells transfected with GFP siRNA): 6.95
- pIC50 (HeLa cells; HeLa cells transfected with P16 siRNA (p16 siRNA I)): 7.15
- pEC50 (MCF7 cells; MCF7, read-out: EC50 (effective concentration median of dose response curve)): 7.40
- pEC50 (MCF7 cells; MCF7, read-out: concentration known to kill 50% of MCF7 drug-sensitive cells): 7.30
- ADR concentration to which cell line is sensitive (MCF7 cells; MCF7 parental line): approximately 80 nM
- upregulation of p16 expression after short exposure (p16^INK4a protein): did not result in these cells' upregulation of p16 expression

From patent publication US20060188507A1, “Methods for identifying chemotherapeutic resistance in non-hematopoietic tumors” (priority 2005, published 2006)
